PubChem BioAssay AID1996
In brackets after ≈: the same amount, converted by molar mass.

settings: buffer; pH 7.4; 200.0 µM

Structure (SMILES) | solubility kinetic
Cl.Fc1ccc(CNCc2ccc3c(c2)OCO3)cc1 | > 44.4 µg/mL
CCc1cccc(NS(=O)(=O)c2ccc3c(c2)NC(=O)CC(=O)N3)c1 | > 53.9 µg/mL
CCN1CCN(c2ccc(S(=O)(=O)N3CCOCC3)cc2N)CC1 | > 53.2 µg/mL
COc1ccccc1C1CCN(C(=O)c2ccccc2)CC1 | 42.4 µg/mL (≈ 144 µM)
CN1C[C@@H]2C[C@@H](c3cccn3-c3nccs3)N3CCC[C@@]23C1=O | 47.2 µg/mL (≈ 144 µM)
NC(=O)C1CCN(c2ccc(S(=O)(=O)N3CCCCC3)cc2[N+](=O)[O-])CC1 | 7.6 µg/mL (≈ 19.2 µM)
COc1ccc(C(=O)NC2CCCCCC2)cc1S(=O)(=O)N1CCCC1 | 6 µg/mL (≈ 15.8 µM)
Clc1ccc(-c2nc3ccccn3c2CN2CCSCC2)cc1 | 1.9 µg/mL (≈ 5.53 µM)
CCC(Oc1ccc(F)cc1)C(=O)N1CCCCCCC1 (stereo not given) | 34.8 µg/mL (≈ 119 µM)
O=C1CN(S(=O)(=O)c2cc(Cl)ccc2Cl)c2ccccc2N1 | 37.8 µg/mL (≈ 106 µM)
O=C(CN1CCOCC1)Nc1cc([N+](=O)[O-])ccc1Cl | 9.8 µg/mL (≈ 32.7 µM)
O=C1CCC(=O)N1CCSC(=S)N1CCOCC1 | > 43.3 µg/mL
O=C(CSc1ccc(C(F)(F)F)cc1[N+](=O)[O-])N1CCOCC1 | 22.9 µg/mL (≈ 65.4 µM)
CCN(CC)C(=O)c1ccc(NC(=O)c2c(C)noc2C)cc1 | > 47.3 µg/mL
CCOC(=O)N1CCC(NC(=O)CCCC(=O)O)CC1 | > 42.9 µg/mL
O=C(NCC1OCCc2ccccc21)C1COc2ccccc2O1 (stereo not given) | > 48.8 µg/mL
COc1ccc(Nc2nc(N)c(C(=O)c3ccc(F)cc3)s2)cc1 | 5.2 µg/mL (≈ 15.1 µM)
COc1ccccc1NC(=O)c1cnc(SC)nc1 | > 41.3 µg/mL
COc1ccc(OCc2csc(N)n2)cc1 | > 35.4 µg/mL
O=C(COC(=O)c1cc(S(=O)(=O)N2CCOCC2)ccc1F)c1ccccc1 | > 61.1 µg/mL
CCOC(=O)c1ccc(NC(=S)N2CCCC2)cc1 | 39.6 µg/mL (≈ 142 µM)
CN(CCc1ccccc1)Cc1c[nH]c2ccccc12.O=C(O)C(=O)O | > 53.2 µg/mL

Structure (SMILES) | solubility kinetic
COc1ccc(/C=C/C(=O)O/N=C(\N)c2ccccn2)cc1OC | 7.8 µg/mL (≈ 23.8 µM)
COc1ccccc1C(=O)NC(=O)CSc1nnc(C)s1 | > 48.5 µg/mL
CCCCc1c(O)nc(SCC(=O)N2CCCCC2)[nH]c1=O | > 48.8 µg/mL
Cl.NCc1ccc2[nH]c(=O)[nH]c2c1 | > 29.9 µg/mL
COC(=O)[C@@H](NC(=O)/C=C/c1ccc(OC)cc1)C(C)C | > 43.7 µg/mL
CCc1ccc(OCC(O)CN2CCCC2)cc1.Cl (stereo not given) | 39.8 µg/mL
O=C1CC(N2CCN(S(=O)(=O)c3ccccc3F)CC2)C(=O)N1c1ccc(F)cc1F (stereo not given) | > 68 µg/mL
COc1ccccc1NC(=O)NCc1ccc(C)n1C | 19.9 µg/mL (≈ 72.8 µM)
O=C(Nc1ccc(F)c(Cl)c1)c1nsc(Cl)c1Cl | 0.7 µg/mL (≈ 2.15 µM)
CCCn1c(SCC(=O)NC2CCCC2)nnc1-c1cccnc1 | > 51.8 µg/mL
Cc1cccc(NC(=S)NCc2ccccc2Cl)c1C | < 0.3 µg/mL
Cc1cccc(NC(=O)CC2(CC(=O)O)CCCC2)c1 | 41.2 µg/mL (≈ 150 µM)
OCCN=C1CCCc2c1[nH]c1ccc(Cl)cc21 | 12.3 µg/mL (≈ 46.8 µM)
CCOc1ccc(C(=O)NCC(=O)NCCOc2ccc(C)cc2)cc1 | 10.4 µg/mL (≈ 29.2 µM)
C=CCn1c(O)c(C=NC2CCN(Cc3ccccc3)CC2)c(=O)[nH]c1=O | 54.1 µg/mL (≈ 147 µM)
N#CCSc1ccccc1NC(=O)CN1C(=O)C(=O)N(Cc2ccccc2)C1=O | 43.3 µg/mL (≈ 106 µM)
CC(C)NC(=O)c1ccc2c(=O)n(CC3CCCO3)c(=S)[nH]c2c1 (stereo not given) | 4.4 µg/mL (≈ 12.7 µM)
CCc1cc2c(SCC(=O)NC3CC3)ncnc2s1 | > 44 µg/mL
Cc1ccc(NC(=O)C2CC2)cc1S(=O)(=O)N1CCOCC1 | > 48.7 µg/mL
O=C(Nc1ccccc1)Nc1sccc1-c1nc2ccccc2s1 | 3.8 µg/mL (≈ 10.8 µM)
COc1cc([N+](=O)[O-])ccc1NC(=O)/C=C/C(=O)O | > 39.9 µg/mL
Nc1ccc(N2CCN(c3ccccc3)CC2)c(F)c1 | > 40.7 µg/mL

Structure (SMILES) | solubility kinetic
CCOC(=O)/C(=C/c1cn(C)c2ccccc12)NC(=O)c1ccccc1 | 3.2 µg/mL (≈ 9.18 µM)
CCOc1ccccc1N1CCN(C(=O)c2cccs2)CC1 | 45.7 µg/mL (≈ 144 µM)
Cc1ccc(C(=O)NC(C)CCc2ccccc2)cc1S(=O)(=O)N1CCOCC1 (stereo not given) | 5.6 µg/mL (≈ 13.4 µM)
O=C(CN1c2cccc3cccc(c23)S1(=O)=O)Nc1ccccc1Br | 4.4 µg/mL (≈ 10.5 µM)
Brc1ccc(-c2csc(N3CCCCCC3)n2)cc1 | 1.2 µg/mL (≈ 3.56 µM)
COc1ccc2c(c1OC)C(=O)N(c1ccc(C)cc1)C2 | 3.2 µg/mL (≈ 11.3 µM)
O=C1NC(=O)N(c2ccc3c(c2)OCO3)C(=O)/C1=C\c1ccsc1 | > 51.3 µg/mL
CC(O)c1cccc(NC(=O)CCCc2ccccc2)c1 (stereo not given) | 39 µg/mL (≈ 138 µM)
c1cncc(-c2noc(-c3ccc4ccccc4c3)n2)c1 | < 0.2 µg/mL
CCC(C(=O)Nc1nc(C)c(C)s1)c1ccccc1 (stereo not given) | 38.3 µg/mL (≈ 140 µM)
CCSc1ccccc1C(=O)N=C1NC(=O)CC2C(=O)NCCN12 (stereo not given) | 16.9 µg/mL (≈ 48.8 µM)
Cc1cccc(C(=O)NCCNC(=O)c2cnccn2)c1 | 38.5 µg/mL (≈ 135 µM)
COc1ccc2cc(C#N)c(N3CCOCC3)nc2c1 | 4.2 µg/mL (≈ 15.6 µM)
NC(=O)c1ccc(NC(=O)CN2CCOCC2)cc1 | 35.6 µg/mL (≈ 135 µM)
CCN(C(=O)COc1nc(C)cc(C)c1C#N)c1ccccc1 | 9.3 µg/mL (≈ 30.1 µM)
Cc1cccc(NC(=O)Cn2cc(C(=O)C3CC3)c3ccccc32)c1C | 0.6 µg/mL (≈ 1.73 µM)
CS(=O)(=O)N(CC(=O)NCC1CCCO1)c1cccc(Cl)c1 (stereo not given) | > 52 µg/mL
COC(=O)c1ccc(CSc2cc(C)c3ccccc3n2)o1 | 3.4 µg/mL (≈ 10.8 µM)
Cn1c(=O)[nH]c(=O)c2c1nc1n2CCS1 | 31 µg/mL (≈ 138 µM)
CCCC1(c2ccccc2)NC(=O)N(CC(=O)Nc2ccc(N3CCOCC3)cc2)C1=O (stereo not given) | > 65.5 µg/mL
C/C(CC1CC(C)(C)OC1=O)=N\NC(N)=S (stereo not given) | > 36.5 µg/mL
O=C1CCC(C(=O)NCc2ccc3c(c2)OCO3)N1 (stereo not given) | > 39.3 µg/mL

Structure (SMILES) | solubility kinetic
CN(C)C(=O)Oc1ccc(NC(=O)N2CCOCC2)cc1 | 43.9 µg/mL (≈ 150 µM)
CC1Oc2ccccc2N(CC(=O)Nc2ccc(F)cc2)C1=O (stereo not given) | 12.6 µg/mL (≈ 40.1 µM)
O=C(NC1CCCCC1)C1CC(=O)N(c2cccc([N+](=O)[O-])c2)C1 (stereo not given) | 7.8 µg/mL (≈ 23.5 µM)
Cc1ccc(S(=O)(=O)NCc2ccccn2)c(C)c1C | 43.2 µg/mL (≈ 149 µM)
Cc1cccc(OC(C)C(=O)N2CCc3ccccc3C2)c1 (stereo not given) | 36 µg/mL (≈ 122 µM)
Cc1cc(C)n2nc(SCc3ccccc3C(=O)O)nc2n1 | > 47.2 µg/mL
OCC1CCCCN1C(=S)NCc1ccco1 (stereo not given) | 32.1 µg/mL (≈ 126 µM)
O=C(COC(=O)c1c(Cl)ccc(Cl)c1Cl)NCC1CCCO1 (stereo not given) | > 55 µg/mL
CCC1CN(C(=O)NCc2cccc(OC)c2)c2ccccc2O1 (stereo not given) | 43.3 µg/mL (≈ 133 µM)
COc1ccc(CCNC(=O)Oc2ccccc2)cc1OC | 42.9 µg/mL (≈ 142 µM)
CCN1CCN(C(=O)c2cc(-c3ccc(Cl)s3)nc3ccccc23)CC1 | 53.5 µg/mL (≈ 139 µM)
CCC(CC)NC(=O)Nc1ccc(C)cc1 | 21.4 µg/mL (≈ 97.1 µM)
Cc1cc(C)cc(NC2=NCCCS2)c1 | 32.1 µg/mL (≈ 146 µM)
O=C(CCCCCN1C(=O)c2ccccc2C1=O)Nc1cccc(O)c1 | 38.4 µg/mL (≈ 109 µM)
Cc1ccc(S(=O)(=O)CC(=O)Nc2ccccn2)cc1 | 42.3 µg/mL (≈ 146 µM)
CCOC(=O)c1sc(NC(=O)CC)c(C#N)c1C | 1.4 µg/mL (≈ 5.26 µM)
O=C(Cn1c(=O)oc2ccc(Cl)cc21)NC1CCCCC1 | 2.9 µg/mL (≈ 9.39 µM)
CC(=O)c1ccc(NC(=O)[C@@H]2CCCN2C(=O)OC(C)(C)C)cc1 | > 49.9 µg/mL
CSCCC1NC(=O)N(CC(=O)Nc2ccc(Cl)c(S(=O)(=O)N3CCOCC3)c2)C1=O (stereo not given) | > 73.6 µg/mL
